Key:
[1] = system: ischemia/reperfusion injury of the optic nerve induced by endothelin-1 (ET-1) in rabbits; assay: Ophthalmic artery resistive index (OA-RI) by ecocolor Doppler in ET-1 ischemia/reperfusion rabbit model; type: in vivo, New Zealand white (NZW) rabbits; parameters: key: Pourcelot resistive index = (PSV−EDV)/PSV; conditions: for Ophthalmic artery resistive index (OA-RI), Baseline: prior to ET-1 dosing and prior to test item
Method: (§1) This series of experiments were performed to determine the effect of Compound (I) on ocular vascular reactivity i.e. ophthalmic artery resistive index (OA-RI) and, consequently, on retinal function after repeated ocular topical dosing in a well-defined model of ischemia/reperfusion injury of the optic nerve induced by the retrobulbar injection of endothelin-1 (ET-1) in rabbits.
(§2) Adult male New Zealand white (NZW) rabbits weighting 1.5-2.0 kg were used. The animals were kept in individual cages, food and water were provided ad libitum. The ischaemia/reperfusion lesion of the optic nerve was obtained by subtenonian injection twice a week with 500 μL of 250 nM ET-1 (Fluka, Israel) in water using a lacrimal cannula under anesthesia produced by ketamine (20 mg/kg, Lobotor, ACME, 100 mg/ml) and xilazine (5 mg/kg, Sedaxylan 2%, Dechra Veterinary Products S.r.l) intramuscularly. Animals were treated with ET-1 for 6 weeks. Compound (I) 0.1% (1 mg/mL) solution or vehicle were administered as eye drop (30 μL/eye), twice a day (around 10:00 AM and 4:00 PM) starting 2 weeks after ET-1 first dosing until the end of the experiment.
Ophthalmic Artery Resistive Index (OA-RI) was estimated using an ecocolor Doppler DynaView™ II SSD-1700 (Aloka Holding Europe AG, Milan, Italy) prior to ET-1 treatment (baseline, time 0), and weekly thereafter until the end of the study. From week 2 to week 4, morning dosing with test article or vehicle were omitted on the day of hemodynamic measurements in order to have virtually drug-free conditions (16-18 h post last dose) at the time of testing. Pourcelot resistive index for ophthalmic artery (OA-RI) was calculated as following: (PSV−EDV)/PSV where PSV and EDV refer to Peak Systolic Velocity and End Diastolic Velocity, respectively.

[2] = system: ischemia/reperfusion injury of the optic nerve induced by endothelin-1 (ET-1) in rabbits; assay: Electroretinogram (ERG) in ET-1 ischemia/reperfusion rabbit model; type: in vivo, New Zealand white (NZW) rabbits
Method: as §1, §2
Electroretinogram (ERG). Topical anesthesia was applied using one drop […] oxybuprocaine hydrochloride, 4 mg/ml. The eyes were then dilated by topical application of tropicamide 1% and, when needed, adapted to darkness for at least 2 hours prior to standard ERGs recording in both eyes using contact lens corneal electrodes so to have sufficiently stable and amplified recordings. The ERG signals [(amplitude, microvolts (μV)] were recorded using Retimax (CSO, Florence, Italy) and according to the current International Society for Clinical Electrophysiology (ISCEV) indications; specifically, the dark-adapted 0.01 ERG (rod response), dark-adapted 3.0 ERG (combined rod-cone response) and, light-adapted 3.0 (cone response) were recorded. Flashes intensity varied: • a) from 0.01 photopic cd·s·m^−2 to 0.025 scotopic candela-seconds per meter squared (cd·s·m^−2) with a minimum interval between flashes of 2 s for the dark-adapted 0.01 ERG; • b) from 3.0 photopic cd·s·m^−2 to 7.5 scotopic cd·s·m^−2 with a minimum interval between flashes of 10 s for the dark-adopted 3.0 ERG • c) from 3.0 photopic cd·s·m^−2 to 7.5 scotopic cd·s·m^−2 with a minimum interval between flashes of 0.5 s and a light adaptation strength of 30 cd·s·m^−2 for the light-adopted 3.0 ERG. In all cases ERG recordings lasted 250 ms. […].
Measurements were taken prior ET-1 first dose (baseline, time 0) and then at the end of week-2 (prior to vehicle- or Compound (I) first day-first dose) and at the end of week-6 (36 h after vehicle or Compound (I)-last day-last dose).

[3] = system: patients with open-angle glaucoma or ocular hypertension; assay: Phase 2 clinical trial, reduction of elevated intraocular pressure (IOP); type: in vivo, human
Method: The efficacy of Compound (I) for the reduction of elevated intraocular pressure (IOP) was evaluated in a Phase 2 clinical trial conducted in 433 patients with open-angle glaucoma or ocular hypertension, treated once daily for 27 days.

[4] = system: subjects with open-angle glaucoma or ocular hypertension, non-study eyes with normal IOP; conditions: 0.024% once daily in the evening up to 12 months, cited from earlier work
[5] = 0.1% solution, 30 μL/eye eye drop bid
[6] = 0.1% solution, 30 μL/eye eye drop bid, listed as Cpd (1)
[7] = 0.1% solution, 30 μL/eye bid, 36 h after last dose, ± S.E.M
[8] = after 2 weeks ET-1, prior to first dose of test item, ± S.E.M
[9] = prior to ET-1 and test item, ± S.E.M

Structure (SMILES): CCNC(=O)CCC/C=C\C[C@@H]1[C@@H](/C=C/[C@H](CCc2ccccc2)OC(=O)CCCCCO[N+](=O)[O-])[C@H](O)C[C@@H]1O [Compound (I), Hexanoic acid, 6-(nitrooxy)-, (1S,2E)-3-[(1R,2R,3S,5R)-2-[(2Z)-7-(ethylamino)-7-oxo-2-hepten-1-yl]-3,5-dihydroxycyclopentyl]-1-(2-phenylethyl)-2-propen-1-yl ester]
- Ophthalmic artery resistive index (OA-RI), ET-1 (3-weeks) + Test items (1 week daily bid) [1, 5]: 0.35 ± 0.03
- Ophthalmic artery resistive index (OA-RI), ET-1 (4-weeks) + Test items (2 weeks daily bid) [1, 5]: 0.32 ± 0.03
- Ophthalmic artery resistive index (OA-RI), ET-1 (5 weeks) + Test items (3 weeks daily bid) [1, 5]: 0.32±0.03
- Ophthalmic artery resistive index (OA-RI), ET-1 (6 weeks) + Test items (4 weeks daily bid) [1, 5]: 0.33±0.02
- Ophthalmic artery resistive index (OA-RI), ET-1 (5 weeks) + Test items (3 weeks daily bid) [1, 6]: 0.32 ± 0.03
- Ophthalmic artery resistive index (OA-RI), ET-1 (6 weeks) + Test items (4 weeks daily bid) [1, 6]: 0.33 ± 0.02
- Ophthalmic artery resistive index (OA-RI), ET-1 (2 weeks) ([1]; after 2 weeks ET-1, prior to first dose of test item): 0.36 ± 0.03
- Ophthalmic artery resistive index (OA-RI), Baseline [1]: 0.30±0.02
- Ophthalmic artery resistive index (OA-RI), Baseline ([1]; listed as Cpd (1)): 0.30 ± 0.02
- ERG Amplitude, Dark adapted 0.01 (Rod response), ET-1 (6 weeks) + Test items (4 weeks daily bid) [2, 7]: 44.3 ± 4.5 μV
- ERG Amplitude, Dark adapted 3.0 (Rod/cone response), ET-1 (6 weeks) + Test items (4 weeks daily bid) [2, 7]: 122.8 ± 11.4 μV
- ERG Amplitude, Light adapted 3.0 (cone response), ET-1 (6 weeks) + Test items (4 weeks daily bid) [2, 7]: 64.2 ± 6.8 μV
- ERG Amplitude, Dark adapted 0.01 (Rod response), ET-1 (2 weeks) [2, 8]: 37.6 ± 6.2 μV
- ERG Amplitude, Dark adapted 3.0 (Rod/cone response), ET-1 (2 weeks) [2, 8]: 96.6 ± 9.4 μV
- ERG Amplitude, Light adapted 3.0 (cone response), ET-1 (2 weeks) [2, 8]: 60.2 ± 4.3 μV
- Impairment in the ERG wave amplitude versus vehicle ([2]; eyes treated for 4 weeks, dark-adapted 0.01, dark-adapted 3.0 and Light-adapted 3.0): significantly (p<0.05) less impairment
- ERG Amplitude, Dark adapted 0.01 (Rod response), Baseline [2, 9]: 42.3 ± 6.9 μV
- ERG Amplitude, Dark adapted 3.0 (Rod/cone response), Baseline [2, 9]: 118.0 ± 10.3 μV
- ERG Amplitude, Light adapted 3.0 (cone response), Baseline [2, 9]: 67.6 ± 6.4 μV
- Conjunctival hyperemia, treated patients ([3]; Phase 2, highest dose tested): 16.8%
- Tolerability ([3]; Phase 2, once daily for 27 days): well tolerated

Structure (SMILES): O=C(CCC/C=C\C[C@@H]1[C@@H](CC[C@@H](O)CCc2ccccc2)[C@H](O)C[C@@H]1O)OCCCCO[N+](=O)[O-] [Latanoprostene Bunod]
- IOP lowering from baseline, Japanese population ([4]; fellow eyes with baseline IOP ≤19 mmHg): 3.2-3.9 mmHg
- IOP lowering from baseline, Caucasian population ([4]; fellow eyes with baseline IOP ≤21 mmHg): 4.2-4.9 mmHg

Source: patent US20240390390A1, “NITRIC OXIDE RELEASING PROSTAMIDE AS NEUROPROTECTIVE AGENT” (Nicox SA, priority 2021, published 2024)
